{"source": "BindingDB's records for PubMed 7473144", "about": "(Gliatech, 1995)", "biological_target": "Hrh3 protein (Rattus norvegicus, UniProt Q5PPG3)", "sequence (Q5PPG3 whole entry)": "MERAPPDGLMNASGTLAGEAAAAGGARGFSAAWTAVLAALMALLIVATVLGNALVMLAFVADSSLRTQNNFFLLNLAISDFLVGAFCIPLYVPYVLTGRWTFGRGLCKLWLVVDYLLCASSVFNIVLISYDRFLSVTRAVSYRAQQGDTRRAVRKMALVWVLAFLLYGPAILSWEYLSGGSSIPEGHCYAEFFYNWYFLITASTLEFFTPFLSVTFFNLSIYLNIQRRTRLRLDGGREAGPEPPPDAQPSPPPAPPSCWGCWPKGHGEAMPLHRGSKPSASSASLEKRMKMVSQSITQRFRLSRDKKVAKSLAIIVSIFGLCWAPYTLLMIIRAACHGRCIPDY"}
{"smiles": "S=C(NC1CCCCC1)N1CCC(c2cnc[nH]2)CC1", "values": [{"measurement": "Ki", "result": 1.8, "unit": "nM"}]}
